Source: patent US11793816B2, “Methods for enhancing cytotoxic cancer therapy through inhibition of ATG4B” (Northwestern University, priority 2019, dated 2023)
“Also recorded” adds a separate entry of the source.

Assays:
U87 cells = assay: Cell viability assay, AZD2014, 72 h; format: cell-based
Description: (§1) FIG. 5. A mTORC1/2 inhibitor AZD2014 inhibited cell survival, mTORC1 and mTORC2 activities in GSCs and glioma cells. (A) GSC M83 and JK83 and glioma cells U87 were treated with indicated concentration of AZD2014 for 72 h, then cell viability was evaluated. (B) GSC M83 and JK83 were treated with the indicated concentration of AZD2014 for 1 hr, or with 2 μM AZD2014 for the specified time. Cells were collected for immunoblot analysis. β-actin was used as a loading control; Results are representative of 2 independent experiments. *P<0.05, **P<0.01, paired two-way Student's t-test. Data are representative from three independent experiments with similar results.
Glioma cells U87 (from ATCC) were cultured in DMEM (Invitrogen) supplemented with 10% FBS and 1% penicillin and streptomycin. Neural progenitor cells were cultured in NPBM Neural Progenitor Basal medium supplemented with hEGF, hFGF, NSF-1 and GA (Lonza, Cat #: cc-3210, cc-4241 and cc-4242). […]
GSCs with single or combined treatments were cultured for 72 hours in 96-well plates at 2,000 cells per well. Cell viabilities were determined using CellTiter-Glow 2.0 Assay (Promega). […]

GSC JK83 and M83 = assay: Cell viability assay, AZD2014 and NSC, 72 h; format: cell-based
Description: as §1
(§2) FIG. 6. NSC enhanced the cytotoxicity of a mTORC1/2 inhibitor AZD2014 in GSCs. (A) GSC M83 and JK83 were exposed to DMSO control vs AZD2014 vs NSCs vs AZD2014 in combination with NSC for 72 hr. Cells were collected for immunoblot analysis using indicated antibodies. (B) Immunofluorescence analyses for LC3B puncta in GSC M83 and JK83 cells with indicated treatments. (C and D) GSC M83 and JK83 and/or neural progenitor cells (NPC) were treated as indicated in (A), cell viability was tested at 72 h after treatment (C), and cell apoptosis was measured by Annexin V FACS assay 48 h after treatment. Data are representative from three independent experiments with similar results.
GSCs with single or combined treatments were cultured for 72 hours in 96-well plates at 2,000 cells per well. Cell viabilities were determined using CellTiter-Glow 2.0 Assay (Promega).
(§3) mTOR kinases are crucial regulators of glioma cell growth, proliferation and survival (Akhavan et al., 2010). […] A strong inhibition was achieved by 1 μM with complete block of mTORC1/2 activities at 2 μM (FIG. 5B).
(§4) Since autophagy activation is considered as a cytoprotective factor that contribute to tumor survival when challenged by therapies, it is proposed that block of autophagy activation by NSC would further enhanced the cytotoxicity of dual TORC1/2 inhibitor AZD2014.

[1] = system: mTORC1 and mTORC2 activity in GSC M83 and JK83 cells; assay: Immunoblot of mTORC1 and mTORC2 activity in GSCs; format: cell-based
Description: as §1, §2
IB assays were performed as previously described (Huang et al., 2016b). Specific antibodies were used according to the manufacturer's instructions: LC3B (#3868S), pAKT (Ser473; 4060), pAKT(Thr308; 4056), AKT (4691), pS6(S235/236; 2211), S6 (2317), phosphorylated 4E-binding protein 1 (p4EBP1) (Thr37/46; 2855), 4EBP1 (9644), p-mTOR (Ser2448; 2971S), p-mTOR (Ser2481; 2974S), mTOR (2972S), pULK1(Ser317; 14202T), pULK1 (Ser757; 8054T), ULK1(6439), LAMP2 (49067S) were from Cell Signaling Technology. Anti-β-actin (SC-47778) and anti-SQSTM1/p62 (SC-28359) antibodies were from Santa Cruz Biotechnology. An anti-Ki-67 antibody (AB9260) was from EMD Millipore.
as §3, §4

[2] = system: LC3B, p62/SQSTM-1 and LAMP2 in GSC M83 and JK83 cells; assay: Immunoblot of autophagy markers (LC3B, p62, LAMP2) in GSCs treated with AZD2014 and NSC; format: cell-based; conditions: NSC in the presence of AZD2014
Description: as §1
as §2, with “results. […]” for “results.”

[3] = system: LC3B puncta in GSC M83 and JK83 cells; assay: LC3B immunofluorescence (puncta, autophagosomes); format: cell-based; conditions: NSC in cells treated with AZD2014
Description: as §2
Immunofluorescent staining. GSCs were seeded onto LabTek CC2-treated tissue culture slides (Thermo Fisher) and cultured for 24 hours. Cells were then fixed with 4% formaldehyde (Fisher) for 15 min, and permeabilized with 0.1% Triton X-100, and then blocked with AquaBlock (East Coast Bio, North Berwick, Me.) for 60 minutes. The slides were incubated with indicated primary antibodies according to the manufacturer's instructions. After being washed for three times with PBS-T, cells were incubated with secondary antibody (Alexa 488 and 594, 1:200) and DAPI-containing mounting solution Vectashield (Vector Laboratories). Cells were analyzed on a Nikon inverted microscope Eclipse Ti-U equipped with a digital camera. […]

[4] = system: GSC JK83 orthotopic xenografts; assay: GSC JK83 orthotopic brain tumor xenograft model (survival, BLI, tissue staining); format: in vivo, mice
Source text: FIG. 7. NSC enhance anticancer efficacy of AZD2014 in a patient-derived GSC xenograft model. […] Treatments were started at one week post-implantation. Bioluminescent (BLI) images were taken after the last treatment, and representative images are shown. Scale bar, photons/sec/cm2/steradian. (B) Kaplan-Meier of mice bearing GSC JK83 orthotopic xenografts with indicated treatments. (C) The brains of mice bearing orthotopic xenografts with indicated treatments were collected for immunohistochemical evaluation using indicating antibody. *P<0.05, **p<0.01, […]. Data are representative from three independent experiments with similar results.
Frozen brain tissue sections with GBM xenografts were dried and then fixed in were fixed in 4% paraformaldehyde (PFA) in PBS for 5 minutes. Tissue sections were blocked with AquaBlock (East Coast Bio, North Berwick, Me.) for an hour and then were probed with appropriate primary antibodies 4° C. overnight. Tissue sections were incubated with Alexa 488 or 594 labelled secondary antibodies (1:200) and DAPI-containing mounting solution Vectashield (Vector Laboratories), and representative images were photographed using a Nikon inverted microscope Eclipse Ti-U equipped with a digital camera.
To determine whether the enhancement of AZD2014 therapeutic efficiency by combination with NSC measured in vitro extends to an orthotopic model, GSC JK83 glioma spheres were employed to initiate intracerebral xenografts in mice.

[5] = system: intracranial GBM6FL TMZ res xenografts; assay: Intracranial PDX GBM6FL temozolomide resistant xenograft model; format: in vivo, mice; conditions: compared to vehicle-treated brain xenografts
Source text: FIG. 8. Combination therapy of autophagy inhibitor NSC185058 (NSC) with IR+TMZ suppressed growth of intracranial GBM6FL temozolomide (TMZ) resistant (res) xenografts. […] Mice were imaged at the indicated day after the implantation, and representative BLI images are shown. (B) Changes in the body weight of the mice in each respective treatment groups. (C, D) Effects of NSC, IR, TMZ and the indicated combinations on GBM6FL TMZ res orthotopic xenografts in mice. The luminescence of xenograft tumors formed by indicated treatment. **p<0.01 compared to vehicle controls. Colored scale bars represent photons/s/cm2/steradian. (E, F) Kaplan-Meier (E) and log-rank p value analyses (F) of mice bearing GBM6FL TMZ res orthotopic xenografts with indicated treatments. First and second IR+TMZ+NSC tri-treatments were started at day 7 and day 35 post-implantation, respectively.
GBM6FL TMZ res orthotopic xenograft model was recently established by Dr. Charles David James at Northwestern University as intracranial GBM xenografts after three runs of TMZ treatments and subsequent passages in the flanks of mice.

SMILES | concentration at which cell viability was significantly decreased (U87 cells) [µM] | cell viability (GSC JK83 and M83; 72 h, combination compared with monotherapy, AZD2014 alone) | concentration at which cell viability was significantly decreased (GSC JK83 and M83; GSC JK83 and M83, 72 h) [µM] | inhibition efficiency on GSCs compared with glioma cells (GSC JK83 and M83; same concentration of AZD2014, GSCs vs U87) | mTOR signaling and ULK1 phosphorylation ([1]; GSC83 and JK83 cells, 72 hr) | concentration giving complete block of mTORC1/2 activities ([1]; GSC M83 and JK83) [µM] | concentration giving strong inhibition of mTORC1/2 activities ([1]; GSC M83 and JK83) [µM] | time by which inhibition of mTORC1 and mTORC2 was detectable ([1]; GSC M83 and JK83, 2 μM AZD2014) [h] | inhibition of p-S6, p-4EBP1, p-AKT (Ser473) ([1]; GSC M83 and JK83, 1 hr) | autophagy markers (LC3B conversion, p62 and LAMP2 degradation) [2] | autophagosomes number (LC3 B immunofluorescence) [3] | levels of p-4EBP1 and p-AKT in tumor tissues ([4]; AZD2014 alone or in combination with NSC vs control) | mouse survival ([4]; NSC (100 mg/kg), AZD2014 (50 mg/kg), alone or combined, vs control) | response of xenografts to TMZ treatments [5]
CNC(=O)c1cccc(-c2ccc3c(N4CCOC[C@@H]4C)nc(N4CCOC[C@@H]4C)nc3n2)c1 [AZD2014, vistusertib] | 0.1 | displayed inhibitor effects on GBM cell viability | 1 | significantly lower than glioma cells | inhibited mTOR induced p-52448/81-mTOR, p-S473-Akt, p-S6, p-S757-ULK1 | 2 | 1 | ≤ 2 | dose-dependently inhibited p-S6, p-4EBP1, and p-AKT (Ser473) | increased LC3-II conversion (LC3B-II/I ratio) and p62/SQSTM-1 degradation; also recorded: induced autophagic influx by inducing LC3B lipidation and degradation of p62 and LAMP2 | increase of autophagosomes number | significantly reduced in the levels of p-4EBP1 and p-AKT | modest but significant effects on mouse survival | –
Cn1nnc2c(C(N)=O)ncn2c1=O [TMZ, temozolomide] | – | – | – | – | – | – | – | – | – | – | – | – | – | no response
